Measured values reported in patent US20230126447A1, “OCULAR DRUG DEPOT FOR COMPLEMENT-MEDIATED DISORDERS” (priority 2020, published 2023).
pIC50: −log10 of the molar value.

How the values were obtained:
[1] = In vitro binding to synthetic melanin; settings: synthetic melanin 50 μg/mL, PBS, 37° C., 1 hour
Protocol: (§1) […] The melanin solution was stored in the dark at 37° C. until use.
(§2) Immediately after the assay, samples were added to an equal volume of warm PBS, aliquots (3 μL each) were removed, added to 100 μL of acetonitrile containing carbutamide as internal standard, and then diluted with water (197 μL). These time-zero samples, prepared in PBS only, were also used as calibration standards.
(§3) The assay plates containing samples with and without melanin were incubated in the dark with shaking at 37° C. for 1 hour. Following incubation, the samples were centrifuged for 15 minutes at approximately 4000 rpm at 37° C. to sediment the melanin. Sample supernatant (3 μL) was added to 100 μL of acetonitrile containing the internal standard and then diluted with water (197 μL).
(§4) The column was set to a temperature of 55° C. […]
(§5) Analytes and internal standards were detected using an Applied Biosystems Sciex API-5500 triple quadrupole mass spectrometer with Agilent 1260 Infinity Binary Pump and Apricot Designs ADDA High-Speed Dual Arm Autosampling System. The instrument was equipped with an electrospray ionization source (600° C.) operated in the positive ion mode. Analytes and internal standards for all samples were monitored in the multiple-reaction-monitoring scan mode.

[2] = Stability under melanin binding assay conditions; settings: 1 h
Protocol: as §1, §3
% Stability=Mean Total Conc. (μM) after 1 Hour/Mean Total Conc. (μM) at Time Zero×100%

[3] = In vitro binding to melanin from Sepia officinalis; settings: S. officinalis melanin 50 μg/mL, PBS, 37° C., 1 hour
Protocol: as §1, §2, §3, §4, §5

[4] = system: AP activity; test: cells; settings: Oryctolagus cuniculus, Erythrocyte, read-out: IC50 for rabbit erythrocyte hemolysis
[5] = QWBA tissue distribution of [14C] Compound 1, pigmented Long-Evans rats (PO, IV); assay type: in vivo; settings: male LE rats, 20 mg/kg PO
Protocol: This study was conducted to determine the tissue distribution of drug-related radioactivity following a single oral (PO) (20 mg/kg) or intravenous (IV) (5 mg/kg) administration of [^14C]
Ten adult male pigmented Long-Evans (LE) rats (Group 1), 1 adult male LE rat (Group 2), and 3 albino Wistar Han (WH) rats (Group 3) received a single oral 20 mg/kg (Groups 1 and 3) or IV 5 mg/kg (Group 2) dose of [^14C] […] The formulation was prepared at a target dose of 5 mg (IV) or 20 mg (PO) […]
The carcasses were frozen in hexane dry-ice and stored at or below −20° C. prior to processing for QWBA. Each carcass was embedded, cut into sagittal sections, and mounted for QWBA. […] The lower limit of quantitation was 0.105 μg equiv/g.

[6] = system: AP activity; test: Wieslab assay (AP activity in vitro); assay type: biochemical
[7] = system: AP activity; test: cells; settings: Erythrocyte, read-out: IC50 for PNH erythrocyte hemolysis
[8] = Multiple ascending dose (MAD) pharmacokinetics in humans; assay type: in vivo

Compound: CC(=O)c1nn(CC(=O)N2C[C@H](F)C[C@H]2C(=O)Nc2cccc(Br)n2)c2ccc(-c3cnc(C)nc3)cc12 [Compound 1, (2S,4R)-1-(2-(3-Acetyl-5-(2-methylpyrimidin-5-yl)-1H-indazol-1-yl)acetyl)-N-(6-bromopyridin-2-yl)-4-fluoropyrrolidine-2-carboxamide]
- Bmax (binding capacity) [1]: 127 nmol/mg melanin
- Mean Stability [2]: 94.3%
- Bmax (binding capacity) [3]: 137 nmol/mg melanin
- pIC50 [4]: 7.57
- Concentration of radioactivity at Tmax, adrenal gland cortex [5]: 33.5 μg equiv/g
- Concentration of radioactivity at Tmax, liver [5]: 52.0 μg equiv/g
- Concentration of radioactivity at Tmax, small intestine [5]: 77.9 μg equiv/g
- Concentration of radioactivity at Tmax, stomach [5]: 374 μg equiv/g
- Concentration of radioactivity at Tmax, tissues with the lowest concentrations (brain, spinal cord, bone, testis, lens of the eye) [5]: < 1.00 μg equiv/g
- Concentration of radioactivity at Tmax, urinary bladder [5]: 54.2 μg equiv/g
- Concentration of radioactivity at Tmax, white adipose [5]: 21.1 μg equiv/g
- t1/2, eye uvea [5]: 576 h
- t1/2, liver [5]: 48.5 h
- t1/2, pigmented skin [5]: 472 h
- Concentration of radioactivity at Tmax, bile ([5]; 1 h): 232 μg equiv/g
- Highest concentration of radioactivity in blood ([5]; 1 h post-dose): 5.28 μg equiv/g
- Concentration of radioactivity at Tmax, urine ([5]; 4 h): 66.2 μg equiv/g
- Concentration of radioactivity in blood ([5]; 8 h post-dose): 0.184 μg equiv/g
- Tissues with quantifiable concentrations at 672 h ([5]; 672 h): Only eye (uvea) and pigmented skin
- pIC50 [6]: 7.59
- pIC50 [7]: 7.85
- Steady state conditions reached ([8]; MAD study): Day 2
- Tmax ([8]; human, in vivo, 200 to 800 mg BID and 75 mg TID, read-out: Median time to maximum concentration (Tmax)): 1 to 2.3 h
